Key:
Test in all cases: relative viability (nuclei count vs DMSO), 5 days (fraction); higher = more cells survive
[1] = tested on: NCI-H1734
Procedure, shortened: (§1)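 Medians of duplicate plates are given as relative viability. That measure is the nuclei count in treated wells divided by the count in vehicle wells. Counts were taken on 4× images of lung cancer cell lines in 1536-well plates, 5 days after pin-tool dosing the day after seeding with one drug alone or a fixed anchor-drug dose plus five library-drug doses (not always all listed) in √10 steps.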

[2] = tested on: CAL-12T
Procedure, shortened: as §1

[3] = tested on: LK-2
Procedure, shortened: as §1

[4] = tested on: NCI-H1650
Procedure, shortened: as §1

[5] = tested on: A-427
Procedure, shortened: as §1

[6] = tested on: UMC-11
Procedure, shortened: as §1

[7] = tested on: NCI-H1648
Procedure, shortened: as §1

[8] = tested on: NCI-H2009
Procedure, shortened: as §1

`CCN(CC)CCCCNc1ncc2cc(-c3cc(OC)cc(OC)c3)c(NC(=O)NC(C)(C)C)nc2n1` + Nc1nc2[nH]cc(CCc3ccc(C(=O)N[C@@H](CCC(=O)O)C(=O)O)cc3)c2c(=O)[nH]1 [Pemetrexed] (partner 0.2 µM) gave a relative viability ([1]; first compound 0.01 µM) of 0.405, a relative viability ([1]; first compound 0.03162 µM) of 0.387 and a relative viability ([1]; first compound 0.1 µM) of 0.418. For the same compound, the relative viability ([1]; first compound 0.3162 µM) was 0.409, the relative viability ([1]; first compound 1 µM) was 0.384 and the relative viability ([2]; first compound 0.01 µM) was 1.4. It also gave a relative viability ([2]; first compound 0.03162 µM) of 1.2, a relative viability ([2]; first compound 0.1 µM) of 1.53 and a relative viability ([2]; first compound 0.3162 µM) of 1.44. For the same compound, the relative viability ([2]; first compound 1 µM) was 1.1, the relative viability ([3]; first compound 0.01 µM) was 0.267 and the relative viability ([3]; first compound 0.03162 µM) was 0.272. For the same compound, the relative viability ([3]; first compound 0.1 µM) was 0.273, the relative viability ([3]; first compound 0.3162 µM) was 0.149 and the relative viability ([3]; first compound 1 µM) was 0.145. For the same compound, the relative viability ([4]; first compound 0.01 µM) was 0.398, the relative viability ([4]; first compound 0.03162 µM) was 0.377 and the relative viability ([4]; first compound 0.1 µM) was 0.352. The relative viability ([4]; first compound 0.3162 µM) was 0.326, the relative viability ([4]; first compound 1 µM) was 0.344 and the relative viability ([5]; first compound 0.01 µM) was 1.01. For the same compound, the relative viability ([5]; first compound 0.03162 µM) was 1, the relative viability ([5]; first compound 0.1 µM) was 1.06 and the relative viability ([5]; first compound 0.3162 µM) was 1.23. It also gave a relative viability ([5]; first compound 1 µM) of 0.965, a relative viability ([6]; first compound 0.01 µM) of 0.862 and a relative viability ([6]; first compound 0.03162 µM) of 0.767. For the same compound, the relative viability ([6]; first compound 0.1 µM) was 0.969, the relative viability ([6]; first compound 0.3162 µM) was 0.986 and the relative viability ([6]; first compound 1 µM) was 0.696. For the same compound, the relative viability ([7]; first compound 0.01 µM) was 0.7, the relative viability ([7]; first compound 0.03162 µM) was 0.815 and the relative viability ([7]; first compound 0.1 µM) was 0.722. For the same compound, the relative viability ([7]; first compound 0.3162 µM) was 0.491, the relative viability ([7]; first compound 1 µM) was 0.487 and the relative viability ([8]; first compound 0.01 µM) was 1.12. The relative viability ([8]; first compound 0.03162 µM) was 1.03, the relative viability ([8]; first compound 0.1 µM) was 1.08 and the relative viability ([8]; first compound 0.3162 µM) was 1.18. It also gave a relative viability ([8]; first compound 1 µM) of 0.988.
In the case of `O=c1cc(-c2cccc3c2Sc2ccccc2S3)oc(N2CCOCC2)c1` + CC(=O)c1c(C)c2cnc(Nc3ccc(N4CCNCC4)cn3)nc2n(C2CCCC2)c1=O [Palbociclib] (partner 0.5 µM), the relative viability ([1]; first compound 0.08 µM) is reported as 0.33, the relative viability ([1]; first compound 0.253 µM) is reported as 0.344 and the relative viability ([1]; first compound 0.8 µM) is reported as 0.414. It also gave a relative viability ([1]; first compound 8 µM) of 0.357, a relative viability ([2]; first compound 0.08 µM) of 0.369 and a relative viability ([2]; first compound 0.253 µM) of 0.57. For the same compound, the relative viability ([2]; first compound 0.8 µM) was 0.498, the relative viability ([2]; first compound 2.53 µM) was 0.404 and the relative viability ([2]; first compound 8 µM) was 0.292. For the same compound, the relative viability ([3]; first compound 0.08 µM) was 0.515, the relative viability ([3]; first compound 0.253 µM) was 0.8 and the relative viability ([3]; first compound 0.8 µM) was 0.637. For the same compound, the relative viability ([3]; first compound 2.53 µM) was 0.767, the relative viability ([3]; first compound 8 µM) was 0.881 and the relative viability ([4]; first compound 0.08 µM) was 0.377. For the same compound, the relative viability ([4]; first compound 0.253 µM) was 0.38, the relative viability ([4]; first compound 0.8 µM) was 0.284 and the relative viability ([4]; first compound 2.53 µM) was 0.311. The relative viability ([4]; first compound 8 µM) was 0.353, the relative viability ([5]; first compound 0.08 µM) was 0.513 and the relative viability ([5]; first compound 0.253 µM) was 0.509. For the same compound, the relative viability ([5]; first compound 0.8 µM) was 0.49, the relative viability ([5]; first compound 2.53 µM) was 0.502 and the relative viability ([5]; first compound 8 µM) was 0.548. The relative viability ([6]; first compound 0.08 µM) was 0.338, the relative viability ([6]; first compound 0.253 µM) was 0.328 and the relative viability ([6]; first compound 0.8 µM) was 0.346. It also gave a relative viability ([6]; first compound 2.53 µM) of 0.326, a relative viability ([6]; first compound 8 µM) of 0.345 and a relative viability ([7]; first compound 0.253 µM) of 0.324. For the same compound, the relative viability ([7]; first compound 0.8 µM) was 0.281, the relative viability ([7]; first compound 8 µM) was 0.302 and the relative viability ([8]; first compound 0.08 µM) was 0.189. The relative viability ([8]; first compound 0.253 µM) was 0.232, the relative viability ([8]; first compound 0.8 µM) was 0.225 and the relative viability ([8]; first compound 2.53 µM) was 0.199. It also gave a relative viability ([8]; first compound 8 µM) of 0.213.
In the case of `CCN(CC)CCCCNc1ncc2cc(-c3cc(OC)cc(OC)c3)c(NC(=O)NC(C)(C)C)nc2n1` + CC(=O)Nc1cccc(-n2c(=O)n(C3CC3)c(=O)c3c(Nc4ccc(I)cc4F)n(C)c(=O)c(C)c32)c1 [Trametinib] (partner 0.02 µM), the relative viability ([1]; first compound 0.01 µM) is reported as 0.665, the relative viability ([1]; first compound 0.03162 µM) is reported as 0.678 and the relative viability ([1]; first compound 0.1 µM) is reported as 0.627. It also gave a relative viability ([1]; first compound 0.3162 µM) of 0.581, a relative viability ([1]; first compound 1 µM) of 0.407 and a relative viability ([2]; first compound 0.01 µM) of 0.3. It also gave a relative viability ([2]; first compound 0.03162 µM) of 0.338, a relative viability ([2]; first compound 0.1 µM) of 0.372 and a relative viability ([2]; first compound 0.3162 µM) of 0.261. It also gave a relative viability ([2]; first compound 1 µM) of 0.333, a relative viability ([3]; first compound 0.01 µM) of 0.856 and a relative viability ([3]; first compound 0.03162 µM) of 0.649. It also gave a relative viability ([3]; first compound 0.1 µM) of 0.756, a relative viability ([3]; first compound 0.3162 µM) of 0.597 and a relative viability ([3]; first compound 1 µM) of 0.299. For the same compound, the relative viability ([4]; first compound 0.01 µM) was 0.695, the relative viability ([4]; first compound 0.03162 µM) was 0.564 and the relative viability ([4]; first compound 0.1 µM) was 0.783. For the same compound, the relative viability ([4]; first compound 0.3162 µM) was 0.598, the relative viability ([4]; first compound 1 µM) was 0.457 and the relative viability ([5]; first compound 0.01 µM) was 0.784. The relative viability ([5]; first compound 0.03162 µM) was 0.68, the relative viability ([5]; first compound 0.1 µM) was 0.694 and the relative viability ([5]; first compound 0.3162 µM) was 0.595. The relative viability ([5]; first compound 1 µM) was 0.466, the relative viability ([6]; first compound 0.01 µM) was 0.686 and the relative viability ([6]; first compound 0.03162 µM) was 0.483. The relative viability ([6]; first compound 0.1 µM) was 0.593, the relative viability ([6]; first compound 0.3162 µM) was 0.764 and the relative viability ([6]; first compound 1 µM) was 0.695. The relative viability ([7]; first compound 0.01 µM) was 0.368, the relative viability ([7]; first compound 0.03162 µM) was 0.49 and the relative viability ([7]; first compound 0.1 µM) was 0.396. It also gave a relative viability ([7]; first compound 0.3162 µM) of 0.46, a relative viability ([7]; first compound 1 µM) of 0.367 and a relative viability ([8]; first compound 0.01 µM) of 0.264. For the same compound, the relative viability ([8]; first compound 0.03162 µM) was 0.244, the relative viability ([8]; first compound 0.1 µM) was 0.266 and the relative viability ([8]; first compound 0.3162 µM) was 0.254. For the same compound, the relative viability ([8]; first compound 1 µM) was 0.192.

Reference: the supplement of paper PMC10307832
